Source: article PMC10215804, “Exploring Alternative Pathways to Target Bacterial Type II Topoisomerases Using NBTI Antibacterials: Beyond Halogen-Bonding Interactions” (Antibiotics, 2023)
Where two headings read alike, the source gives them in different places.

Tests used:
E. coli DNA gyrase = target: T1, E. coli DNA gyrase (Escherichia coli, UniProt P0AES4); experiment: DNA gyrase supercoiling inhibition assay (high-throughput plate assay); format: biochemical
T1 construct: purchased Inspiralis (Norwich, UK)
Method: To determine the IC50 values of the compounds for S. aureus and E. coli, a DNA gyrase supercoiling high-throughput plate assay and a topoIV relaxation high-throughput plate assay were performed. Assay kits and black streptavidin-coated 96-well microtiter plates are available from Inspiralis (Norwich, UK). For pre-screening, an inhibitor concentration of 100 μM was used. […] A nonlinear regression-based fit of the inhibition curves was used, with the log [inhibitor] versus slope of the reaction variables (four parameters) and a symmetric equation. […] To determine IC50 values, two independent repetitions were performed and the average was calculated.

MRSA (QA-11.7) = experiment: MIC, broth microdilution; format: cell-based, S. aureus; conditions: Staphylococcus aureus
Method: (§1) For the determination of minimum inhibitory concentrations (MIC), the broth microdilution method was used in 96-well plate format, according to the guidelines of the Clinical and Laboratory Standards Institute and the recommendations of the European Committee on Antimicrobial Susceptibility Testing (EUCAST). The dilutions of the bacterial suspension of the specific bacterial strain, corresponding to the 0.5 McFarland turbidity standard, were prepared with […] Mueller–Hinton broth with TES (Thermo Fisher Scientific) to obtain an end inoculum of 10^5 CFU/mL. The compounds were dissolved in DMSO and mixed with the inoculum. […] The MIC was determined as the lowest concentration of antibiotic that prevented visible bacterial growth. Tetracycline was used as a positive control on each test plate.

MRSA (QA-11.2) = experiment: MIC, broth microdilution; format: cell-based, S. aureus; conditions: Staphylococcus aureus
Method: as §1

MRSA(QA-12.1) = experiment: MIC, broth microdilution; format: cell-based, S. aureus; conditions: Staphylococcus aureus
Method: as §1

[1] = Table S3, read-out: MIC (μM) MRSA (QA-11.7)
[2] = strain resistant to cefoxitin, ciprofloxacin, clindamycin, erythromycin, tetracycline, thiamulin, trimethoprim, read-out: MIC MRSA (QA-11.7)
[3] = Table S3, read-out: MIC (μM) MRSA (QA-11.2)
[4] = Table S3, read-out: MIC (μM) MRSA(QA-12.1)
[5] = strain resistant to cefoxitin, gentamicin, kanamycin, rifampicin, streptomycin, sulfamethoxazole, tetracycline, read-out: MIC MRSA(QA-12.1)

T1 sequence (P0AES4 whole entry): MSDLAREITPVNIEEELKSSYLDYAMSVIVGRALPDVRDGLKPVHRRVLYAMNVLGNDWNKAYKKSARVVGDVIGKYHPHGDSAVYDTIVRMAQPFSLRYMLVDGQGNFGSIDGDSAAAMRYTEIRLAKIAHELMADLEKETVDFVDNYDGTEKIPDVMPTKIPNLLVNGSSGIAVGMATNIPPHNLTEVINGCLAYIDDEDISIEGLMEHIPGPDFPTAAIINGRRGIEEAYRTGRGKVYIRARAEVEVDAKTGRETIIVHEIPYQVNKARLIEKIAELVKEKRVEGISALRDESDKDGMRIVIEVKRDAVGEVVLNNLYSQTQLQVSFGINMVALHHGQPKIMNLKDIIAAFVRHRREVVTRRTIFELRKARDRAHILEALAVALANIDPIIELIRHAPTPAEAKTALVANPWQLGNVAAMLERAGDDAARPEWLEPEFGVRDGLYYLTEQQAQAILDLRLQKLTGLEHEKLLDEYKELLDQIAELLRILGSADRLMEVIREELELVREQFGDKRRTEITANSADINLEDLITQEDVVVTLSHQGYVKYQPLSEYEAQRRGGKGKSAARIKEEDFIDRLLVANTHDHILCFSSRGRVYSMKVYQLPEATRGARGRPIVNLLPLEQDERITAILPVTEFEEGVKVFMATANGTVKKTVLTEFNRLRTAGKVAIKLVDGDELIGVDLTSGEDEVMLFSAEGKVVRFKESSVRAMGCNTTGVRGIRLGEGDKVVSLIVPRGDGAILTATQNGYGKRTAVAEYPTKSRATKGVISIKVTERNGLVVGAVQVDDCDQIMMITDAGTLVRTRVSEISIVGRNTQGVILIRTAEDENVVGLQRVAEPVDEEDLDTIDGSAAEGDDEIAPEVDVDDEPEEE

SMILES	IC50 (E. coli DNA gyrase)	MIC (MRSA (QA-11.7); [1])	MIC (MRSA (QA-11.7); [2])	MIC (MRSA (QA-11.2); [3])	MIC (MRSA (QA-11.2); read-out: MIC MRSA (QA-11.2))	MIC (MRSA(QA-12.1); [4])	MIC (MRSA(QA-12.1); [5])
COc1ccc2nccc(CCN3CCC(NCc4ccc(C)cc4)CC3)c2n1 [Compound 5, 1-(2-(6-Methoxy-1,5-naphthyridin-4-yl)ethyl)-N-(4-methylbenzyl)piperidin-4-amine]	1019 ± 5 nM	0.041 µM	0.016 µg/mL	0.082 µM	0.032 µg/mL	0.041 µM	0.016 µg/mL
COc1ccc2nccc(OCC3CCC(NCc4ccc(C)cc4)CC3)c2n1 (stereo not shown) [Compound 6]	1520 ± 361 nM	2.56 µM	1 µg/mL	1.28 µM	0.5 µg/mL	5.12 µM	2 µg/mL
COc1ccc2nccc(OCC3CCC(NCc4ccc(C)cc4)CO3)c2n1 (stereo not shown) [Compound 7, 6-(((6-Methoxy-1,5-naphthyridin-4-yl)oxy)methyl)-N-(4-methylbenzyl)tetrahydro-2H-pyran-3-amine]	1310 ± 348 nM	2.56 µM	1 µg/mL	0.64 µM	0.25 µg/mL	1.28 µM	0.5 µg/mL
COc1ccc2nccc(C(O)CC3CCC(NCc4ccc(C)cc4)CC3)c2n1 (stereo not shown) [Compound 8, 1-(6-Methoxy-1,5-naphthyridin-4-yl)-2-(4-((4-methylbenzyl)amino)cyclohexyl)ethan-1-ol]	1320 ± 460 nM	0.32 µM	0.125 µg/mL	0.082 µM	0.032 µg/mL	0.161 µM	0.063 µg/mL
